Assay results reported in ChEMBL document CHEMBL1201862, “PubChem BioAssay data set” (2004).
The source made the active and inactive calls.

Tests used:
[1] = biological target: Dual specificity tyrosine-phosphorylation-regulated kinase 1A (Rattus norvegicus, UniProt Q63470); type: biochemical, Homo sapiens
[2] = biological target: T1, Carboxy-terminal domain RNA polymerase II polypeptide A small phosphatase 1 (Homo sapiens, UniProt Q9GZU7); test: inhibitors of CTDSP1, concentration-response testing, biochemical assay, absorbance-based, actives from ultra-high-throughput screening (AID 540297); type: functional
T1 sequence (Q9GZU7 whole entry): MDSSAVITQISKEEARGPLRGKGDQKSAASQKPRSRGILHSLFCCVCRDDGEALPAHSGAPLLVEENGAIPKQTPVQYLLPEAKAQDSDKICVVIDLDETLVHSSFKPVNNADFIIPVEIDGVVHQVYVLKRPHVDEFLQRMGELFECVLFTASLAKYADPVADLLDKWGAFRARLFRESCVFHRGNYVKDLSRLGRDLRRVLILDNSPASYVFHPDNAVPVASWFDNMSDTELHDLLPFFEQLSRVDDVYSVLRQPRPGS

[3] = biological target: Voltage-dependent T-type calcium channel subunit alpha-1H (Homo sapiens, UniProt O95180); type: functional;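 note: channel activity triggered by adding a high calcium stimulation buffer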
[4] = microbe, parasite or virus in culture; type: functional; settings: Mycobacterium tuberculosis
[5] = tested on: INS1; test: beta cell apoptosis inhibitors, cytokine rescue, dose response, luminescence, retest (AID 449756); type: functional, cell-based; settings: Rattus norvegicus;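 note: cell death triggered by IL-1 beta plus TNF-alpha plus IFN-gamma mixture; protective hits raise ATP signal compared with cytokine alone wells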
[6] = inhibitors of intracellular T. cruzi replication, confirmation, NIH3T3 host cells, beta-gal luminescence (AID 2044); type: functional, cell-based;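 note: intracellular parasites grown in NIH/3T3 mouse fibroblasts as host cells; luminescent beta-galactosidase reporter signal from transgenic T. cruzi replicating inside host cells; inhibitors lower the luminescence signal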
[7] = cytotoxicity toward NIH3T3 fibroblasts, dose response, counter-screen, cell-based, ATP luminescence, mouse fibroblasts (AID 2010); type: functional;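 note: cells exposed to compound for about 90 hours before reading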
[8] = biological target: Nonstructural protein 1 (Influenza A virus, UniProt Q194T2); type: functional, Influenza A virus (A/California/07/2009(H1N1))
[9] = biological target: T2, Leucine aminopeptidase (Plasmodium falciparum 3D7, UniProt Q8IL11); test: P. falciparum M17LAP inhibitors, primary screen, biochemical, fluorogenic H-Leu-NHMec substrate, 1536-well (AID 1619); type: functional
T2 sequence (Q8IL11 whole entry): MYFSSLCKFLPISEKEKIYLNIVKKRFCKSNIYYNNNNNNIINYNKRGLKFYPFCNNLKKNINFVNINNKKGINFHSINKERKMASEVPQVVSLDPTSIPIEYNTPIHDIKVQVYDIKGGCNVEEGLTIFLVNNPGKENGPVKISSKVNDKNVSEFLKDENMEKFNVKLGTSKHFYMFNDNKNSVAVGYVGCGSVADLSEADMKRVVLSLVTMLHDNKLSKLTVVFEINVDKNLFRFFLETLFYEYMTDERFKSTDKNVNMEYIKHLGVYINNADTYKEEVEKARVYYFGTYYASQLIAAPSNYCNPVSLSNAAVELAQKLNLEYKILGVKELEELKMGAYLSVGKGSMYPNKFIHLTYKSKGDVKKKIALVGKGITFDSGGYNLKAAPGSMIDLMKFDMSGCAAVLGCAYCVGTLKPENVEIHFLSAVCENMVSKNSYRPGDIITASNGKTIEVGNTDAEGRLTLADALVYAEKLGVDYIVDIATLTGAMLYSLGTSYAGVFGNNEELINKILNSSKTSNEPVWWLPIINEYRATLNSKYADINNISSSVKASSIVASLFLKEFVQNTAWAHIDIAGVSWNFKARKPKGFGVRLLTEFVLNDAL

[10] = biological target: FAD-linked sulfhydryl oxidase ALR (Homo sapiens, UniProt P55789); test: inhibitors of human ALR sulfhydryl oxidase, dose response, biochemical, H2O2 detection, luminescence, cherry-pick (AID 493248)
[11] = biological target: T3, Rac GTPase-activating protein 1 (Homo sapiens, UniProt Q9H0H5); test: MgcRacGAP GTPase-activating activity inhibitors, confirmation, biochemical, ADP Hunter fluorescence, primary and confirmatory (AID 624330); type: functional
T3 sequence (Q9H0H5 whole entry): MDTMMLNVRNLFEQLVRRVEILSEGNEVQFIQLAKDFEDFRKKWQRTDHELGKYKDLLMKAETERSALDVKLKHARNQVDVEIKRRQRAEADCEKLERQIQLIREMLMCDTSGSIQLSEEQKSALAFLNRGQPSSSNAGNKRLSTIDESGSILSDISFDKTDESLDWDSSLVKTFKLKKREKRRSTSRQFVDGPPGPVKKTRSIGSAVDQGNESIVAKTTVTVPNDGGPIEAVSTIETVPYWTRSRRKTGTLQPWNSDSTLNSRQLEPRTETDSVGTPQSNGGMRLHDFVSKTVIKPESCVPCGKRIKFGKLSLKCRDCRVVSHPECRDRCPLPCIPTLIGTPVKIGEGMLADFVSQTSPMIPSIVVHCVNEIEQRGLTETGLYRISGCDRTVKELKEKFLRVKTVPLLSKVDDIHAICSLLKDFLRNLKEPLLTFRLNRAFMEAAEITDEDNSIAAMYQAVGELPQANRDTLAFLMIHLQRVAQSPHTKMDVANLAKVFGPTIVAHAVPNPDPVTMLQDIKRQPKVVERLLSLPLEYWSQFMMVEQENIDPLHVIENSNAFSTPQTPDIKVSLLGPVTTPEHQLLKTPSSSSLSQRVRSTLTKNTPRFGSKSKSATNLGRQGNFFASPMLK

[12] = biological target: T4, Heat shock factor protein 1 (Mus musculus, UniProt P38532); test: inhibition of MG132-induced HSE-luciferase signal, confirmation, cell-based, NIH3T3, luminescence, dose retest (AID 2382); type: functional;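 note: NIH3T3 fibroblasts with HSF1-driven luciferase reporter stressed by proteasome inhibitor MG132; luminescence from HSF1-driven luciferase expression after 8 hours of MG132 stress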
T4 sequence (P38532 whole entry): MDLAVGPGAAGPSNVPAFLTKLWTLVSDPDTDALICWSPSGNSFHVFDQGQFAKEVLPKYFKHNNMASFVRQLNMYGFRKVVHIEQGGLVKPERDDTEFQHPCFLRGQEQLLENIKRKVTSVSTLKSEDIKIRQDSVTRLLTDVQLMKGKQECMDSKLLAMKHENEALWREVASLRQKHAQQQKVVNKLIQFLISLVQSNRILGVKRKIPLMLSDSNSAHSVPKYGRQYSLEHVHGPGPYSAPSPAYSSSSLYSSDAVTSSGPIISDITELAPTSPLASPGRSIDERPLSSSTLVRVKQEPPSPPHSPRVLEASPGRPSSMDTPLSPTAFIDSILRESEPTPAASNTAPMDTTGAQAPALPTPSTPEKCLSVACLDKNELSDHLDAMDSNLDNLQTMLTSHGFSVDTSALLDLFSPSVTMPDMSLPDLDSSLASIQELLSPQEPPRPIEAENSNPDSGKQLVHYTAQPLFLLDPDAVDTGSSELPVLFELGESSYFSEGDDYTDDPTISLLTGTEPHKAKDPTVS

Chain of FAD-linked sulfhydryl oxidase ALR (P55789 whole entry): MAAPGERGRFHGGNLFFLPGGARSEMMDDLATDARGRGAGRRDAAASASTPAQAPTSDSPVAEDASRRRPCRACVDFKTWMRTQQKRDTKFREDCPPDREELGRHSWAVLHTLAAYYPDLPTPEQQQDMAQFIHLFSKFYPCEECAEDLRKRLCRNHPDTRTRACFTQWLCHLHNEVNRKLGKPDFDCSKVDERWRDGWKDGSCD
Chain of Voltage-dependent T-type calcium channel subunit alpha-1H (O95180 whole entry): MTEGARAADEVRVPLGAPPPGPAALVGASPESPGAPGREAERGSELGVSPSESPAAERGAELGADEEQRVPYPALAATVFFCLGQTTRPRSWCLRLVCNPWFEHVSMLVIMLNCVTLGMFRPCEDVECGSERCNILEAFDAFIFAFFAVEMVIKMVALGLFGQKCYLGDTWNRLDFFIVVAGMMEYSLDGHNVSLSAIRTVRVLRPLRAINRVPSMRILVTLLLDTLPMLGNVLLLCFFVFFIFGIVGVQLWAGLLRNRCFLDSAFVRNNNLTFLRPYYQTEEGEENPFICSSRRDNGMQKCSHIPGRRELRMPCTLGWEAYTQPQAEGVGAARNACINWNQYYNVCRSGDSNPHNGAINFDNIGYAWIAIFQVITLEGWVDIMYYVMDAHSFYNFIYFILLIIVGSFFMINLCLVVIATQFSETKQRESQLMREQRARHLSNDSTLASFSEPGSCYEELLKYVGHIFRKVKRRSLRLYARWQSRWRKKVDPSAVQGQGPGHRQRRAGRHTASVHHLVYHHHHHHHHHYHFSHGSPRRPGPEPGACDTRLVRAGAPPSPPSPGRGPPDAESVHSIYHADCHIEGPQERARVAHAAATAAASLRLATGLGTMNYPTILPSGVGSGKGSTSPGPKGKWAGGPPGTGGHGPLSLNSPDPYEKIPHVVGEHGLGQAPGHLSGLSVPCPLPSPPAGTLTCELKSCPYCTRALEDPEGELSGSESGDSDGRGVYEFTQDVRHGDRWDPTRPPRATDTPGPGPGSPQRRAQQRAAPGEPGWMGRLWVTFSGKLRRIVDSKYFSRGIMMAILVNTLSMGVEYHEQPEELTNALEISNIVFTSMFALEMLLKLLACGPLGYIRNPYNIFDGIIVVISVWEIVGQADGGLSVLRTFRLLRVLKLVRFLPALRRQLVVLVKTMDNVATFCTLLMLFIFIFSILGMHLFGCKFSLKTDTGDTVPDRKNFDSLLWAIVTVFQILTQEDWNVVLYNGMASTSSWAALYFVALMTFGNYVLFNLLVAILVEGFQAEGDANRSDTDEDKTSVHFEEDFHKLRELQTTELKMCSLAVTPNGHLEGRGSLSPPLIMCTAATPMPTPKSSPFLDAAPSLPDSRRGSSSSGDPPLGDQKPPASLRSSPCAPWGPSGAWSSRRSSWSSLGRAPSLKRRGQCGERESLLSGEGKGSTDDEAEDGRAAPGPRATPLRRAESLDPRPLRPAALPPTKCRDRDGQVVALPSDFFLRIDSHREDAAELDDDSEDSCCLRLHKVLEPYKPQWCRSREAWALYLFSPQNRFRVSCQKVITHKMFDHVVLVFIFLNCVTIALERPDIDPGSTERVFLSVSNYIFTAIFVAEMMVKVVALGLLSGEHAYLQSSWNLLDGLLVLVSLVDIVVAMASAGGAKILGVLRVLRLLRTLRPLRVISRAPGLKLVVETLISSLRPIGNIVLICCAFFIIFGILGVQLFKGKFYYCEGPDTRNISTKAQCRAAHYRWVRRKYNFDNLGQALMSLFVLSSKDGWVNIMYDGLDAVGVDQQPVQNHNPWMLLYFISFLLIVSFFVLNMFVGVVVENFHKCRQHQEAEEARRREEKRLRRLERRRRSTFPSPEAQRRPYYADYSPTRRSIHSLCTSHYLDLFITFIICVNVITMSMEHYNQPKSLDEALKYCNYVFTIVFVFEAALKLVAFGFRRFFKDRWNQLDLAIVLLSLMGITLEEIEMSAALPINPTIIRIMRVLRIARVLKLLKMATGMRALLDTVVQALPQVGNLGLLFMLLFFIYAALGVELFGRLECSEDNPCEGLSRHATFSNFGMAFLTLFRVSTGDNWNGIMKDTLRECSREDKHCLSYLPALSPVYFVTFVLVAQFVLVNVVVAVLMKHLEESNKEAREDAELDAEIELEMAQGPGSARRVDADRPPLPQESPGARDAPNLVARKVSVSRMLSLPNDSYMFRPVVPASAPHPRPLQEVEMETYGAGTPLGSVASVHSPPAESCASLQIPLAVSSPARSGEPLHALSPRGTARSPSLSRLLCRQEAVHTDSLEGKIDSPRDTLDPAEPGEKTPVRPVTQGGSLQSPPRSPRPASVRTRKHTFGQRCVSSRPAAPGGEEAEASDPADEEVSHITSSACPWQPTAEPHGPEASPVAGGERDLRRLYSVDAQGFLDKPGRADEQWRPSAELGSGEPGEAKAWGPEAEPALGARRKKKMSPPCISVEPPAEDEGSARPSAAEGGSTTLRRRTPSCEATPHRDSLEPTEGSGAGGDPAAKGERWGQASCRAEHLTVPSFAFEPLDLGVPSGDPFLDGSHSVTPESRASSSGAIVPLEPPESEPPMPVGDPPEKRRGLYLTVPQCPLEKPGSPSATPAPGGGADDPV
Chain of Nonstructural protein 1 (Q194T2 whole entry): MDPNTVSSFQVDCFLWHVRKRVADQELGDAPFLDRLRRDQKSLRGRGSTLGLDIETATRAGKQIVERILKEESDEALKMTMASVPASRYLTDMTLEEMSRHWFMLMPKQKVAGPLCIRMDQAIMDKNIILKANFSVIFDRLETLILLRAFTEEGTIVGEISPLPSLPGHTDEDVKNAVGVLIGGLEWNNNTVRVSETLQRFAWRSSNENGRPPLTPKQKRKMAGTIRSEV

SMILES: CCCC[n+]1ccc(-c2nc3cc([N+](=O)[O-])ccc3[nH]2)cc1
- AC50 [1]: 2.24 µM (active)

SMILES: NC(=O)COc1ccc(/C=N\NC(=O)c2ccc(-c3ccccc3)cc2)cc1
- IC50 [2]: 6.66 µM (active)

SMILES: Cn1cc(C(=O)c2ccc(Cl)cc2Cl)cc1C(=O)NN=C(N)COc1ccccc1
- EC50 [3]: 3.97 µM (active)

SMILES: Cc1ccccc1CSCCNC(=O)CCSc1ccccc1
- EC50 [3]: 3.24 µM (active)

SMILES: C=C(C)C(=O)OCC(O)COc1ccc(C(C)(C)c2ccc(OCC(O)COC(=O)C(=C)C)cc2)cc1 (stereo unspecified)
- CC50 [4]: > 40 µM (active)
- AC50 [5]: 15 µM (active)

SMILES: CCC(C)(C)n1nnnc1C(c1ccncc1)N1CCC(Cc2ccccc2)CC1 (stereo unspecified)
- EC50 [6]: 1.06 µM (active)
- EC50 [7]: > 60 µM (not active)
- EC50 [3]: 9.75 µM (active)

SMILES: Cc1c(NN=C2C(=O)NC(=O)NC2=O)c(=O)n(-c2ccccc2)n1C
- IC50 [8]: 2.12 µM (active)

SMILES: Cc1cc(C(=O)O)ccc1-c1ccc(/C=C2\NC(=O)N(Cc3ccccc3Cl)C2=O)o1
- IC50 [9]: 13.6 µM (active)
- IC50 [2]: 7.71 µM (active)

SMILES: CC(=O)N1CCN(c2ccc(NCc3ccc(Br)o3)cc2)CC1
- AC50 [10]: 0.743 µM (active)
- IC50 [11]: 13.7 µM (active)

SMILES: Oc1ccccc1N1CCN(c2nnnn2-c2ccccc2)CC1
- AC50 [10]: 7.83 µM (active)

SMILES: O=C(O)c1ccc(CSc2nc3ccc(NC(=O)c4ccccc4C(=O)O)cc3s2)cc1
- IC50 [2]: 6.66 µM (active)

SMILES: CN(C)c1ccc(N=Nc2cccc(F)c2)cc1
- IC50 [8]: 25 µM (active)

SMILES: O=C(NCc1nnc(S)n1-c1ccc(Br)cc1)c1ccc(S(=O)(=O)N2CCCC2)cc1
- AC50 [10]: 6.96 µM (active)

SMILES: CC(C)n1cc(/C=N/Nc2ccc(C(=O)O)cc2)c2ccccc21
- EC50 [12]: < 0.16 µM (active)
- AC50 [10]: 0.192 µM (active)

SMILES: CC1CCN(C(=O)CSCC(=O)Nc2nc(-c3cccs3)cs2)CC1
- EC50 [3]: 2.23 µM (active)
